Experiments:
[1] = system: yellow fever mosquito, Aedes aegypti (Linnaeus); type: in vivo; settings: 1 PPM, 72 hours
Experimental: Formulations were prepared by dissolving 30 mg of organotin compound of the invention in 10 ml of acetone. This solution was then diluted to 1 ppm with water. Two 25-ml aliquots were placed in test tubes to which were added 10 to 25 fourth instar larvae of the yellow fever mosquito, Aedes aegypti (Linnaeus). The tubes were held in darkness for 72 hours. At the end of this period the percent control was determined.

[2] = system: corn leaf aphids Rhopalosiphum maidis (Fitch); test: Aphid Contact Test; type: in vivo; settings: 1000 PPM spray, barley, 5 days
Experimental: Test formulations were prepared for spraying at 1000 ppm (parts per million) concentration by dissolving them in a small amount of acetone and adding a suitable wetting agent. Typically, […] of organotin compound was dissolved (or suspended) in 10 ml of acetone, 2 drops of Triton-X100 wetting agent (octylphenoxy polyethoxy ethanol with 9-10 mole percent of polyethylene oxide) were added and this was suspended in 300 ml of water make a 6000 ppm suspension. An aliquot was then further diluted with distilled water to 1000 ppm concentration of organotin compound.
Eight to ten day old barley seedlings, grown ten plants each in a 12 oz. cup, were infested with corn leaf aphids Rhopalosiphum maidis (Fitch), two days prior to treatment. Two pots were treated with each formulation by spraying with a spray atomizer while the plants were rotating on a turntable. Following treatment, the plants were held for 5 days in the greenhouse. At the end of this period, the percent control of the aphids was estimated based on the reduction of the population density as compared to untreated plants used as controls.

[3] = system: cotton boll weevils, Anthonomous grandis Boheman; test: Cotton Boll Weevil Test; type: in vivo; settings: for % Control Cotton Boll Weevil: 1000 PPM, cotton seedlings, five days, Abbott-corrected, 7200 min; for Boll Weevil % Feeding Reduced on Cotton: 1000 ppm, visual comparison of feeding damage
Experimental: Formulations were prepared at 1000 ppm as in B, the Aphid Contact Test, above. Cotton seedlings 12 to 14 days old grown in 12 oz cups were used. Two pots were treated with each formulation by spraying with a spray atomizer while rotating the pots on a turntable. Five adult cotton boll weevils, Anthonomous grandis Boheman, were placed in each pot following treatment and were caged by covering the pots with an inverted 16 oz styrofoam cup with small perforations punched in the bottom. The surviving weevils were counted after five days in the greenhouse to determine the percent control, corrected for any natural mortality in the control plants by Abbott's formula. The percent reduction in feeding was estimated by visual comparison of the feeding damage to the treated plants with the control (untreated) plants.
(§1) F. Abbott's Formula: [formula]

[4] = system: adult mites, urticae Koch; test: Mite One-Day Residual Test (Example 8); type: in vivo; settings: 500 PPM, cotton, six days after infestation; 8640 min
Experimental: Test compounds were prepared as in B, the Aphid Contact Test, above but were further diluted to 500 ppm with water.
Cotton, in the second primary leaf stage grown in twelve ounce cups under greenhouse conditions at 70°-75° F., was used in the test.
one plant (two primary leaves) in one pot was used for each replicate; two replicates were used for each concentration of organotin compound tested.
The plants were sprayed with the dispersions using a small spray atomizer to throughly drench the foliage.
One day following treatment, a circle of tree tanglefoot was placed on the upper surface of the treated leaves and adult mites, urticae Koch, were transferred into this confinement.
Six days following infestation with mites, the plants were examined for adult live mites remaining on the leaves. On an estimation basis in comparison with the number of living mites on the control plants, the percent control was determined.

[5] = system: tobacco bud worm, Heliothis virescens (Fabricius); test: Tobacco Bud Worm Diet Test; type: in vivo; settings: 1000 PPM, one week, Abbott-adjusted, 10080 min
Experimental: Test formulations were prepared at 1000 ppm as in B, the Aphid Contact Test, above. Two-tenths ml of the diluted formulations was pipetted onto the surface of 5 grams of a synthetic diet mixture held in partially filled cells of a plastic jelly tray. Five cells were treated with each chemical dilution. The diet mixture was a modified Vanderzant diet consisting of wheat germ, soy flour, agar, sugar, salts, vitamins, preservatives and water. The jelly trays had fifty cavities per sheet, each cavity being approximately 2.5 × 4.0 × 1.5 cm.
Following treatment, a third or early fourth instar larva of the tobacco bud worm, Heliothis virescens (Fabricius), was placed in each cell. The trays were then covered with a plastic film plus a sheet of rigid plastic and were held in an incubator at 80° F.
At the end of one week, the trays were examined and the percent control was determined, adjusted for any natural mortality in the controls by Abbott's formula. The trays were held an additional week and any abnormalities in the development of the survivors was noted.
as §1

[6] = Hydrolysis in humid air (81% humidity chamber); type: physicochemical
Source text: A. The compound subjected to humid air was a typical Peterson compound, phenylsulfonylmethyltrimethylstannane, [formula] A 5 gal. jar was set on its side on a wooden support and contained a wire mesh screen to support samples in test over a mixture of 152 g of (NH4)2 SO4 in 168 g of H2 O. An excess of (NH4)2 SO4 in contact with a saturated aqueous solution of (NH4)2 SO4 gives 81% humidity in a closed space.^1 The following samples of this Peterson compound were weighted into 40 mm O.D. petri dishes (minus cover) of 8 mm depth and the dishes placed into the humidity chamber, and the chamber was then closed: No. 15 dish 0.2186 g; No. 34 dish 0.2006 g. Before the samples were removed from the balance, a solid crust began forming on the surface of the liquid and, inside of ten minutes, covered all of the liquid surface. An odor of a volatile trimethyltin compound was noted. When the samples were placed in the humidity chamber, the samples coated almost all of the surface area inside the dishes. The 5 gal. jar was set on the bench under normal laboratory lighting. The initial temperature inside the chamber was 24.5° C. Over 4 days, the temperature ranged from the initial temperature as a high to a low temperature of 18° C. The No. 15 sample was removed after 4 days. Under the surface crust, there was an oily solid. The sample was scraped with a spatula into a 2 dram sample vial. The oily solid remaining was washed into the vial with chloroform (about 0.5 to 1 ml). The chloroform was removed under a stream of nitrogen. The No. 34 sample was removed from the chamber after 7 days. The sample was completely solid and was scraped into a vial.
at 307 Hz and a broadened singlet flanked by satellites at 36.5 Hz for (CH3)3 Sn and a broadened singlet at 191 Hz for the OH.
B. A corresponding compound, closely related to the compounds of this invention, phenylsulfonylethyltrimethylstannane, [formula] was subjected to similar humidity conditions in the same equipment. […]

[7] = Thermal stability on distillation; type: physicochemical; settings: at the temperature required to distill the starting sulfone
Experimental: The pot residue, a black brittle glass when cooled, weighed 16.2 g. The cuts were analyzed by (glpc) gas-liquid phase chromatography using a 6 feet × 1/8 inch column packed with 10% of silicone gum rubber on silanized diatomaceous earth at a column temperature of 260° C. […] There also was a more volatile component which increased in amount in each successive cut. The latter observation accompanied by a gradual loss in vacuum is usually associated with some thermal decomposition. Cuts No. 2 and No. 3 were combined for a second distillation using a vacuum jacketed vigreaux column. One cut was obtained, b.p. 43°-125° C. […] The vigreaux column was replaced by a short-path head and a third distillation was run on the pot residue. The following cuts were taken:
A sample of Cut No. 1 was analyzed by nuclear magnetic resonance spectroscopy (NMR). […] In summary, the product could only be obtained as a mixture with the starting sulfone despite three distillation attempts to separate the mixture.

[8] = cited from earlier work
[9] = system: tobacco bud worm, Heliothis virescens (Fabricius); test: 3-day tobacco bud worm test on cotton, comparative (Table VII); type: in vivo; settings: 6 days after spray
Experimental: Tesst formulations were prepared by dissolving 50 mg of organotin compound of the invention in one ml of acetone, adding one drop of Emulfor 719, a commercial surface-active dispersing agent (polyoxyethylated vegetable oil) and suspending in 50 m1 of water for a concentration of 1000 ppm (parts per million). Aliquots of the solution were further diluted with distilled water to concentrations of 100, 20 and 5 ppm.
Cotton seedlings two weeks old were used. These were grown in 12 ounce cups with two plants in each cup. The diluted formulations were applied to the seedling plants with a spray atomizer and allowed to dry. Three cups were treated with each diluted formulation. A third instar larvae of the tobacco bud worm, Heliothis virescens (Fabricius). was placed in each cup and confined by inverting a perforated 16 oz. styrofoam cup over the top. Percent control of the worms and amount of feeding damage to the plants was determined after two weeks in the greenhouse.
(§2) The 3-day tobacco bud worm test on cotton differed as follows from that set forth in Example 10. The plants used were 3 weeks old, and were covered with cheesecloth during the test. Six replicates were used for each test compound, with 1 worm per plant. The plants were infested with larva 3 days after the spray application and the recorded observations were made 6 days after the spray application.

[10] = system: adult mites, Tetranychus urticae koch; test: Mite one-day residual test, comparative (Table VII); type: in vivo; settings: 3 days after loading mites, 85° F.
Experimental: Cotton in the second primary leaf stage, grown in twelve ounce cups under greenhouse conditions at 70°-75° F. was used in this test. One plant (two primary leaves) in one pot was used for each replicate and two replicates were used for each concentration of tin compound tested. Test formulations were prepared by dissolving 50 mg of tin compound in one ml of acetone, adding one drop of Emulfor 719, a commercial surface-activedispersing agent (polyoxyethylated vegetable oil) and suspended in 50 ml of water for concentration of 1000 ppm (parts per million). Aliquots of this solution were further diluted with distilled water to concentrations of 100, 20 and 5 ppm. The plants were sprayed with the formulations using a small spray atomizer to thoroughly drench the foliage. One day following treatment, a circle of tree tanglefoot was placed on the upper surfaces of the treated leaves and adult mites, Tetranychus urticae koch, were transferred into this confinement. Counts of these mites were made immediately following transfer and again six days later.
The mite one-day residual test differed as follows from that set forth in Example 9. The plants were held in a growth chamber maintained at 85° F., and were exposed to high intensity fluorescent lights for 14 hour days. The recorded observations were made 3 days after loading the mites.
as §2

Compound | % Control Mosquito Larvae [1] | % Control Aphids [2] | % Control Cotton Boll Weevil [3] | Boll Weevil % Feeding Reduced on Cotton [3] | % Control Mite One-Day Residual [4] | % Control Tobacco Bud Worm [5] | further results
2-(p-dodecylphenylsulfonyl)ethyltrimethylstannane [Compound 11] | 100% | 90% | 100% | 50% | 100% | 100% | 
2-Thioacetoxyethyltri-n-butyltin | 55% | 95% | 40% | 90% | 80% | 20% | 
C[CH](S(=O)(=O)c1ccc(C(C)(C)C)cc1)[Sn]([CH3])([CH3])[CH3] (stereo not drawn) [1-[p-t-butylphenylsulfonyl]ethyltrimethylstannane] |  |  |  |  |  |  | hydrolysis deficiencies ([6]; comparison with the Peterson compound): suffers from the same hydrolysis deficiencies as does the Peterson compound
CC(C)(C)c1ccc(S(=O)(=O)[CH2][Sn]([CH3])([CH3])[CH3])cc1 [4-t-butylphenylsulfonylmethyltrimethylstannane] |  |  |  |  |  |  | thermal instability [7]: thermal instability of the product at the temperature required to distill the starting sulfone
CCC[CH2][Sn]([CH2]CCC)([CH2]CCC)[CH2]S(=O)(=O)c1ccccc1 [[(Phenylsulfonyl)methyl]tributyltin] |  |  |  |  |  |  | reactivity toward carbon dioxide and oxygen ([8]; room temperature): unreactive toward carbon dioxide and oxygen at room temperature; decomposition to phenyl methyl sulfone and tributyltin oxide on exposure of a thin layer to air ([8]; within four days, 5760 min): ca. 50%
[CH3][Sn]([CH3])([CH3])[CH2]CS(=O)(=O)c1ccccc1 [trimethylphenylsulfonylethylstannane, phenylsulfonylethyltrimethylstannane] |  |  |  |  |  |  | hydrolysis in humid air (infrared, NMR) ([6]; 81% humidity, 27° C./room temperature, 4 days and 2 weeks): not subject to hydrolysis under the stated conditions
[CH3][Sn]([CH3])([CH3])[CH2]S(=O)(=O)c1ccccc1 [trimethylphenylsulfonylmethylstannane, phenylsulfonylmethyltrimethylstannane] |  |  |  |  |  |  | hydrolysis in humid air (NMR) ([6]; 81% humidity, 18-24.5° C., 4 days and 7 days): no unreacted starting Peterson compound
[CH3][Sn]([CH3])([CH3])[OH] [trimethyltin hydroxide] |  |  |  |  |  |  | Tobacco Bud Worm % Control ([9]; 0.15 millimoles/liter): 16%; Tobacco Bud Worm % Feeding Reduced ([9]; 0.15 millimoles/liter): 50%; Tobacco Bud Worm % Control ([9]; 0.3 millimoles/liter): 16%; Tobacco Bud Worm % Feeding Reduced ([9]; 0.3 millimoles/liter): 69%; Tobacco Bud Worm % Control ([9]; 0.6 millimoles/liter): 66%; Tobacco Bud Worm % Feeding Reduced ([9]; 0.6 millimoles/liter): 81%; Mite One-Day Residual % Control ([10]; 0.15 millimoles/liter): 7%; Mite One-Day Residual % Control ([10]; 0.3 millimoles/liter): 34%; Mite One-Day Residual % Control ([10]; 0.6 millimoles/liter): 9%
Trimethyltin p-toluenesulfinate | 0% | 98% | 100% | 100% | 100% | 100% | 

From patent US3976672A, “(Hydrocarbylphenylsulfonyl)alkyltrimethylstannanes” (priority 1975, dated 1976)
